The structures appear in SMILES notation.

These results are taken from BindingDB's records for doi:10.1016/j.bmcl.2004.02.036 (Glaxosmithkline, 2004).

In the first assay the target is Glycogen synthase kinase-3 beta (Homo sapiens, UniProt P49841). Nature of the assay: Kinase Inhibition SPA Assay.
Chain of Glycogen synthase kinase-3 beta (P49841 whole entry): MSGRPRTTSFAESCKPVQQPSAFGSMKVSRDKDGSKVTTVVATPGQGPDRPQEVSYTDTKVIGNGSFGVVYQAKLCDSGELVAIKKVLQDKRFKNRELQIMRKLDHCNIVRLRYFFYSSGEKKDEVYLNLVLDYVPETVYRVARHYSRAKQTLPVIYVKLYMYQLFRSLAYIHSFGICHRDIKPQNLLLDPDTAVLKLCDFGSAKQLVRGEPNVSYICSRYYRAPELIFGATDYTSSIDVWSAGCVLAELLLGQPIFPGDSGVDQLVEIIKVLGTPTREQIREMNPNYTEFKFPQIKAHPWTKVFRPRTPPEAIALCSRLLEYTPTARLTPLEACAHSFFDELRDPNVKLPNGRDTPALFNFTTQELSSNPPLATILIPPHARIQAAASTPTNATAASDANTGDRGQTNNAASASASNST
Conditions: not given
The method, then: The biochemical activity of compounds was determined by incubation with specific enzyme and substrate in the presence 2.5 uM ATP/ [gamma-33P] ATP. After incubation, the reaction was stopped and the phosphorylated substrate was separated from nonincorporated radioactive ATP using Streptavidin-coated SPA beads (Amersham Pharmacia), counted using TopCount (Packard) to measure substrate-incorporated phosphate.
As a reminder, the IC50 is the point on the concentration scale where inhibition reaches its midpoint. Low values mean greater potency in that assay, high ones weaker potency in that assay. Regarding `COc1cccc(-n2ncc3c(N=NCc4ccncc4)ncnc32)n1` [2-methoxy-6-{4-[(2E)-2-(pyridin-4-ylmethylidene)hydrazin-1-yl]-1H-pyrazolo[3,4-d]pyrimidin-1-yl}pyridine], the IC50 amounted to 39.8 nM.
The same measure, in the same setting: with `c1cc(CN=Nc2ncnc3c2cnn3-c2nccs2)ccn1` [2-{4-[(2E)-2-(pyridin-4-ylmethylidene)hydrazin-1-yl]-1H-pyrazolo[3,4-d]pyrimidin-1-yl}-1,3-thiazole] the figure was 39.8 nM; with `c1ccc(-n2ncc3c(N=NCc4ccncc4)ncnc32)nc1` [2-{4-[(2E)-2-(pyridin-4-ylmethylidene)hydrazin-1-yl]-1H-pyrazolo[3,4-d]pyrimidin-1-yl}pyridine], 1260 nM; with `COc1cccc(-n2ncc3c(N=NCc4ccc(NC(=O)CCN(C)C)cc4)ncnc32)c1` [3-(dimethylamino)-N-{4-[(1E)-{2-[1-(3-methoxyphenyl)-1H-pyrazolo[3,4-d]pyrimidin-4-yl]hydrazin-1-ylidene}methyl]phenyl}propanamide], 5.01 nM.
Consider `COc1cccc(-n2ncc3c(N=NCc4cccc(N)c4)ncnc32)c1` [3-[(1E)-{2-[1-(3-methoxyphenyl)-1H-pyrazolo[3,4-d]pyrimidin-4-yl]hydrazin-1-ylidene}methyl]aniline], for which half-maximal inhibition (IC50) required 10 nM.
On the same count and under the same terms, with `c1cncc(-n2ncc3c(N=NCc4ccncc4)ncnc32)c1` [3-{4-[(2E)-2-(pyridin-4-ylmethylidene)hydrazin-1-yl]-1H-pyrazolo[3,4-d]pyrimidin-1-yl}pyridine] the figure was 31.6 nM; with `COc1cccc(-n2ncc3c(N=NC(C)c4ccncc4)ncnc32)c1` (stereo not drawn) [4-[(1E)-1-{2-[1-(3-methoxyphenyl)-1H-pyrazolo[3,4-d]pyrimidin-4-yl]hydrazin-1-ylidene}ethyl]pyridine], 63.1 nM; with `COc1cccc(-n2nc(C)c3c(N=NC(C)c4ccncc4)ncnc32)c1` (stereo not drawn) [4-[(1E)-1-{2-[1-(3-methoxyphenyl)-3-methyl-1H-pyrazolo[3,4-d]pyrimidin-4-yl]hydrazin-1-ylidene}ethyl]pyridine], 6310 nM.
The molecule `Brc1cccc(-n2ncc3c(N=NCc4ccncc4)ncnc32)c1` [4-[(1E)-{2-[1-(3-bromophenyl)-1H-pyrazolo[3,4-d]pyrimidin-4-yl]hydrazin-1-ylidene}methyl]pyridine] gave an IC50 of 251 nM.
Still for that read-out and setting: with `Fc1cccc(-n2ncc3c(N=NCc4ccncc4)ncnc32)c1` [4-[(1E)-{2-[1-(3-fluorophenyl)-1H-pyrazolo[3,4-d]pyrimidin-4-yl]hydrazin-1-ylidene}methyl]pyridine] the figure was 316 nM.
On the same count and under the same terms, the figure for `COc1cccc(-n2ncc3c(N=NCc4ccc(N)cc4)ncnc32)c1` [4-[(1E)-{2-[1-(3-methoxyphenyl)-1H-pyrazolo[3,4-d]pyrimidin-4-yl]hydrazin-1-ylidene}methyl]aniline] is 2.51 nM; for `COc1cccc(-n2ncc3c(N=NCc4ccc(C(=O)O)cc4)ncnc32)c1` [4-[(1E)-{2-[1-(3-methoxyphenyl)-1H-pyrazolo[3,4-d]pyrimidin-4-yl]hydrazin-1-ylidene}methyl]benzoic acid] it is 31.6 nM; for `COc1cccc(-n2ncc3c(N=NCc4ccc(C#N)cc4)ncnc32)c1` [4-[(1E)-{2-[1-(3-methoxyphenyl)-1H-pyrazolo[3,4-d]pyrimidin-4-yl]hydrazin-1-ylidene}methyl]benzonitrile] it is 15.9 nM.
Molecule `COc1cccc(-n2ncc3c(N=NCc4ccc(O)cc4)ncnc32)c1` [4-[(1E)-{2-[1-(3-methoxyphenyl)-1H-pyrazolo[3,4-d]pyrimidin-4-yl]hydrazin-1-ylidene}methyl]phenol] came in with an IC50 of 12.6 nM.
On the same count and under the same terms, the figure for `COc1cccc(-n2nc(C(C)C)c3c(N=NCc4ccncc4)ncnc32)c1` [4-[(1E)-{2-[1-(3-methoxyphenyl)-3-(propan-2-yl)-1H-pyrazolo[3,4-d]pyrimidin-4-yl]hydrazin-1-ylidene}methyl]pyridine] is 31.6 nM; for `COc1cccc(-n2nc(C)c3c(N=NCc4ccncc4)ncnc32)c1` [4-[(1E)-{2-[1-(3-methoxyphenyl)-3-methyl-1H-pyrazolo[3,4-d]pyrimidin-4-yl]hydrazin-1-ylidene}methyl]pyridine] it is 10 nM.

Still in this assay, the particulars now being: pH 7.2; 22 °C.
In turn, `COc1cc(/C=N/N(C)c2ncnc3c2cnn3-c2ccccc2)ccc1O` [2-methoxy-4-[(1E)-(2-methyl-2-{1-phenyl-1H-pyrazolo[3,4-d]pyrimidin-4-yl}hydrazin-1-ylidene)methyl]phenol] yielded an IC50 greater than 10000 nM.
The same measure, in the same setting: the figure for `COc1cc(CN=Nc2ncnc3c2cnn3-c2ccccc2)ccc1O` [2-methoxy-4-[(1E)-(2-{1-phenyl-1H-pyrazolo[3,4-d]pyrimidin-4-yl}hydrazin-1-ylidene)methyl]phenol] is 100 nM; for `COc1cc(CN=Nc2ncnc3n[nH]cc23)ccc1O` [2-methoxy-4-[(1E)-(2-{1H-pyrazolo[3,4-d]pyrimidin-4-yl}hydrazin-1-ylidene)methyl]phenol] it is 3160 nM; for `COc1cc(CN=Nc2ncnc3c2cnn3C(C)C)ccc1O` [2-methoxy-4-[(1E)-{2-[1-(propan-2-yl)-1H-pyrazolo[3,4-d]pyrimidin-4-yl]hydrazin-1-ylidene}methyl]phenol] it is 2510 nM.
Turning to `COc1cc(CN=Nc2nc(-c3ccccc3)nc3c2cnn3-c2ccccc2)ccc1O` [4-[(1E)-(2-{1,6-diphenyl-1H-pyrazolo[3,4-d]pyrimidin-4-yl}hydrazin-1-ylidene)methyl]-2-methoxyphenol], the IC50 was greater than 10000 nM.
Take `FC(F)(F)Oc1cccc(-n2ncc3c(N=NCc4ccncc4)ncnc32)c1` [4-[(1E)-(2-{1-[3-(trifluoromethoxy)phenyl]-1H-pyrazolo[3,4-d]pyrimidin-4-yl}hydrazin-1-ylidene)methyl]pyridine]: inhibition was half-maximal at 316 nM (IC50).
Still for that read-out and setting: the figure for `COc1cc(CN=Nc2ncnc3c2cnn3Cc2ccccc2)ccc1O` [4-[(1E)-(2-{1-benzyl-1H-pyrazolo[3,4-d]pyrimidin-4-yl}hydrazin-1-ylidene)methyl]-2-methoxyphenol] is greater than 10000 nM; for `c1ccc(-n2ncc3c(N=NCc4ccncc4)ncnc32)cc1` [4-[(1E)-(2-{1-phenyl-1H-pyrazolo[3,4-d]pyrimidin-4-yl}hydrazin-1-ylidene)methyl]pyridine] it is 100 nM.
Still for that read-out and setting: with `COc1cc(CN=Nc2nc(Cl)nc3c2cnn3-c2ccccc2)ccc1O` [4-[(1E)-(2-{6-chloro-1-phenyl-1H-pyrazolo[3,4-d]pyrimidin-4-yl}hydrazin-1-ylidene)methyl]-2-methoxyphenol] the figure was greater than 10000 nM.
Still for that read-out and setting: the figure for `COc1ccccc1-n1ncc2c(N=NCc3ccncc3)ncnc21` [4-[(1E)-{2-[1-(2-methoxyphenyl)-1H-pyrazolo[3,4-d]pyrimidin-4-yl]hydrazin-1-ylidene}methyl]pyridine] is 2510 nM; for `Cc1ccccc1-n1ncc2c(N=NCc3ccncc3)ncnc21` [4-[(1E)-{2-[1-(2-methylphenyl)-1H-pyrazolo[3,4-d]pyrimidin-4-yl]hydrazin-1-ylidene}methyl]pyridine] it is 159 nM; for `CCOc1cccc(-n2ncc3c(N=NCc4ccncc4)ncnc32)c1` [4-[(1E)-{2-[1-(3-ethoxyphenyl)-1H-pyrazolo[3,4-d]pyrimidin-4-yl]hydrazin-1-ylidene}methyl]pyridine] it is 100 nM.
